In general, IC50 refers to the concentration needed to halve the response being measured. A high value points to a need for much substance.

Assay [1] concerns Trypanosoma brucei rhodesiense. In words: Antitrypanosomal activity against Trypanosoma brucei rhodesiense STIB900 trypomastigotes by microplate assay. The class given is functional, organism-based.
The test system of a further assay is Trypanosoma cruzi. The assay can be described thus: Antitrypanosomal activity against Trypanosoma cruzi Tulahuen C4 amastigotes by microplate assay. It counts as functional, organism-based.
In the next assay the test system is Leishmania donovani. In words: Antileishmanial activity against Leishmania donovani MHOM-ET-67/L82 amastigotes by microplate assay. The class given is functional, organism-based.
The subject of a further assay is L6. The assay can be described thus: Cytotoxicity against rat L6 cells. The class given is cell-based.
The nature of assay [2]: Selectivity index, ratio of IC50 for rat L6 cells to IC50 for Trypanosoma brucei rhodesiense STIB900. It counts as functional, cell-based.
The nature of assay [3]: Selectivity index, ratio of IC50 for rat L6 cells to IC50 for Trypanosoma cruzi Tulahuen C4. The class given is functional, cell-based.
The nature of assay [4]: Selectivity index, ratio of IC50 for rat L6 cells to IC50 for Leishmania donovani MHOM-ET-67/L82. It counts as functional, cell-based.

`O=C1C=C(Oc2ccccc2)C(=O)c2ccccc21`: the IC50 in assay [1] was 80 nM; in the assay on Trypanosoma cruzi it was 1260 nM; with Leishmania donovani it was 1260 nM; in the assay with L6, 5920 nM. Further, the selectivity index in assay [2] was found to be 74; in assay [3] it was 4.7; in assay [4] it was 4.69.

Turning to `O=C1C=C(Oc2ccc(F)cc2Br)C(=O)c2cc3ccccc3cc21`, the IC50 in assay [1] was 80 nM; with Trypanosoma cruzi, 2870 nM; with Leishmania donovani, 350 nM; with L6 it was 1130 nM. The results for the selectivity index in assay [2], in assay [3] and in assay [4] were 14.1, 0.39 and 3.24, respectively.

In the case of `O=C1C=C(Oc2ccc(Br)cc2Br)C(=O)c2ccccc21`, the IC50 in assay [1] was 510 nM; in the assay on Trypanosoma cruzi it was 34300 nM; in the assay with Leishmania donovani, 2370 nM; in the assay on L6 it was 28500 nM. For the same compound, the selectivity index was 55.7 in assay [2], 0.83 in assay [3] and 12.1 in assay [4].

In the case of `O=C1C=C(Oc2ccccc2)C(=O)c2cc3ccccc3cc21`, the IC50 in assay [1] is 50 nM; in the assay with Trypanosoma cruzi it was 4660 nM; in the assay on Leishmania donovani it was 340 nM; in the assay on L6 it was 1000 nM. Besides, the values for the selectivity index in assay [2], in assay [3] and in assay [4] were 20, 0.21 and 2.94, respectively.

For the compound `O=C1C=C(Oc2ccc(F)cc2F)C(=O)c2cc3ccccc3cc21`, the half-maximal inhibitory concentration (IC50) in assay [1] was found to be 240 nM; in the assay on Trypanosoma cruzi, 7140 nM; in the assay on Leishmania donovani, 280 nM; in the assay on L6, 1980 nM. The selectivity index in assay [2] turned out to be 8.43; in assay [3], 0.28; in assay [4], 7.01.

On to `Cc1ccc(OC2=CC(=O)c3cc4ccccc4cc3C2=O)c(C)c1`, for which the concentration for half-maximal inhibition (IC50) is 310 nM in assay [1], 22500 nM with Trypanosoma cruzi, 550 nM in the assay on Leishmania donovani and 4130 nM in the assay with L6. For the same compound, the selectivity index in assay [2] is 13.2; in assay [3], 0.18; in assay [4], 7.53.

In the case of `O=C1C=C(Oc2ccc(F)cc2Br)C(=O)c2ccccc21`, the half-maximal inhibitory concentration (IC50) came out at 360 nM in assay [1], 3740 nM with Trypanosoma cruzi, 1810 nM with Leishmania donovani and 4660 nM with L6. In addition, the selectivity index in assay [2] worked out at 13.1; in assay [3] it was 1.25; in assay [4], 2.58.

Turning to `O=C1C=C(Oc2ccc(Cl)cc2Cl)C(=O)c2cc3ccccc3cc21`, the IC50 in assay [1] amounted to 65 nM; in the assay with Trypanosoma cruzi it was 13700 nM; in the assay on Leishmania donovani, 490 nM; with L6, 2010 nM. For the same compound, the selectivity index is 31 in assay [2], 0.15 in assay [3] and 4.15 in assay [4].

Consider `Cc1ccc(OC2=CC(=O)c3ccccc3C2=O)cc1Br`, for which the IC50 amounted to 300 nM in assay [1], 2880 nM with Trypanosoma cruzi, 920 nM with Leishmania donovani and 4920 nM in the assay on L6. Further, the selectivity index in assay [2] was found to be 16.4; in assay [3] it was 1.71; in assay [4], 5.34.

Consider `Cc1ccc(OC2=CC(=O)c3ccccc3C2=O)c(C)c1`, for which the IC50 in assay [1] came to 220 nM; in the assay on Trypanosoma cruzi, 2470 nM; in the assay on Leishmania donovani, 510 nM; in the assay with L6 it was 5260 nM. In addition, the figures for the selectivity index in assay [2], in assay [3] and in assay [4] were 24.4, 2.13 and 10.3, respectively.

Consider `O=C1C=C(Oc2ccc(F)cc2F)C(=O)c2ccccc21`, for which the IC50 in assay [1] was found to be 390 nM; in the assay on Trypanosoma cruzi it was 5000 nM; in the assay on Leishmania donovani, 2290 nM; with L6 it was 5510 nM. Further, the selectivity index in assay [2] was 14.2; in assay [3], 1.1; in assay [4], 2.41.

Regarding `O=C1C=C(Oc2ccc(Cl)cc2F)C(=O)c2cc3ccccc3cc21`, the IC50 worked out at 210 nM in assay [1], 21500 nM in the assay with Trypanosoma cruzi, 530 nM in the assay with Leishmania donovani and 2640 nM in the assay on L6. The selectivity index in assay [2] turned out to be 12.4; in assay [3] it was 0.12; in assay [4], 5.01.

`Cc1ccc(OC2=CC(=O)c3cc4ccccc4cc3C2=O)cc1Br`: the IC50 in assay [1] came to 150 nM; in the assay with Trypanosoma cruzi, 6360 nM; in the assay on Leishmania donovani, 360 nM; in the assay with L6, 2560 nM. Moreover, the selectivity index in assay [2] amounted to 17.4; in assay [3], 0.4; in assay [4] it was 7.1.

With `O=C1C=C(Oc2ccc(Cl)cc2Cl)C(=O)c2ccccc21`, the IC50 stood at 290 nM in assay [1], 5950 nM in the assay with Trypanosoma cruzi, 1320 nM in the assay with Leishmania donovani and 5180 nM with L6. The selectivity index was found to be 17.8 in assay [2], 0.87 in assay [3] and 3.94 in assay [4].

With `O=C1C=C(Oc2ccc(Cl)cc2F)C(=O)c2ccccc21`, the IC50 in assay [1] stood at 370 nM; with Trypanosoma cruzi, 4430 nM; with Leishmania donovani, 700 nM; in the assay with L6, 4580 nM. Besides, the selectivity index was found to be 12.5 in assay [2], 1.03 in assay [3] and 6.54 in assay [4].

As for `O=C1C=C(Oc2ccc(Br)cc2Br)C(=O)c2cc3ccccc3cc21`, the IC50 in assay [1] came to 140 nM; with Trypanosoma cruzi, 16400 nM; with Leishmania donovani, 470 nM; in the assay on L6 it was 2190 nM. In addition, the selectivity index in assay [2] worked out at 15.4; in assay [3] it was 0.13; in assay [4] it was 4.71.

For the compound `CCCCCCCCCCCCCCCCOP(=O)([O-])OCC[N+](C)(C)C` [MILTEFOSINE], the midpoint of inhibition in the assay with Leishmania donovani, the IC50, lay at 310 nM.

For the origin of these results see ChEMBL document CHEMBL1141548, “Synthesis of a small library of 2-phenoxy-1,4-naphthoquinone and 2-phenoxy-1,4-anthraquinone derivatives bearing anti-trypanosomal and anti-leishmanial activity” (Bioorg Med Chem Lett, 2008).
